From US20250313879A1, “Fluorescent Probe for Detecting Peptide Bond Hydrolase” (The University of Tokyo, priority 2022, published 2025)
Numbered stars: 1 amine (or outer) side, 2 acyl side, 3 side chain; on linkers, the order of the positions; unused ones are H or OH. Square brackets hold non-standard residues; d marks the D form. Peptide text beside a SMILES is read from it. * marks the point of attachment. X2 = Cc1ccc(S(=O)(=O)O)cc1C1=C2C=CC(=N)C=C2[Si](C)(C)c2cc(N*)ccc21; X1 = Nc1ccc2c(c1)Oc1cc(N*)ccc1C21OCc2cc(S(=O)(=O)O)ccc21; Suc = O=C(CCC(=O)[*:2])[*:1]

Assays:
Type in all cases: biochemical
[1] = test system: aminopeptidase activity in human plasma sample; experiment: Enzyme activity assay in microdevice with human plasma, aminopeptidase probes; conditions: 50 μM probe
Protocol: • 1. Ala-sHMRG as a fluorescent probe for detecting aminopeptidase activity was diluted with an assay buffer to 100 μM. The composition of the assay buffer is 100 mM HEPES-NaOH (pH 7.4), 1 mM MgCl2, 0.1% BSA, 1 mM DTT, 1 mM Triton X-100, • 2. Next, a human plasma sample was diluted by 500 times with the above assay buffer, and mixed in an equal amount with the diluted solution of the probe. At this time, the final concentrations of both are 50 μM for Ala-sHMRG and 1,000 fold dilution for the human plasma sample. • 3. The mixed solution of both was then added to a microdevice, followed by the addition of sealing oil to enclose the solution in each well. • 4. The microdevice in which the solution was enclosed was incubated at 37° C. for 4 hours, and then the fluorescence intensity of each well was measured with a fluorescence microscope.
(§1) • 1. Leu-sHMRG as a fluorescent probe for detecting aminopeptidase activity was diluted with an assay buffer to 100 μM. The composition of the assay buffer is 100 mM HEPES-NaOH (pH 7.4), 1 mM MgCl2, 1 mM DTT, 3 mM Triton X-100. • 2. Next, a human plasma sample was diluted by 2,500 times with the above assay buffer, and mixed in an equal amount with the diluted solution of the probe. At this time, the final concentrations of both are 50 μM for Leu-sHMRG and 5,000 fold dilution for the human plasma sample. • 3. The mixed solution of both was then added to a microdevice, followed by the addition of sealing oil to enclose the solution in each well. • 4. The microdevice in which the solution was enclosed was incubated at 37° C. for 4 hours, and then the fluorescence intensity of each well was measured with a fluorescence microscope.
(§2) • 5. Met-sHMRG as a fluorescent probe for detecting aminopeptidase activity was diluted with an assay buffer to 100 μM. The composition of the assay buffer is 100 mM HEPES-NaOH (pH 7.4), 1 mM MgCl2, 1 mM CaCl2, 1 mM DTT, 3 mM Triton X-100. • 6. Next, a human plasma sample was diluted by 500 times with the above assay buffer, and mixed in an equal amount with the diluted solution of the probe. At this time, the final concentrations of both are 50 μM for Met-sHMRG and 1,000 fold dilution for the human plasma sample. • 7. The mixed solution of both was then added to a microdevice, followed by the addition of sealing oil to enclose the solution in each well. • 8. The microdevice in which the solution was enclosed was incubated at 37° C. for 2 hours, and then the fluorescence intensity of each well was measured with a fluorescence microscope.
as §2, with “• 9. Tyr-sHMRG” for “• 5. Met-sHMRG”, “• 10.” for “• 6.”, “for Tyr-sHMRG” for “for Met-sHMRG”, “• 11.” for “• 7.”, “• 12.” for “• 8.”, “for 4” for “for 2”
• 1. Lys-sHMRG as a fluorescent probe for detecting aminopeptidase activity was diluted with an assay buffer to 100 μM. The composition of the assay buffer is 100 mM HEPES-NaOH (pH 7.4), 1 mM MgCl2, 1 mM CaCl2, 1 mM DTT, 3 mM Triton X-100. • 2. Next, a human plasma sample was diluted by 10,000 times with the above assay buffer, and mixed in an equal amount with the diluted solution of the probe. At this time, the final concentrations of both are 50 μM for Lys-sHMRG and 20,000 fold dilution for the human plasma sample. • 3. […]

[2] = test system: protease activity in human plasma sample; experiment: Enzyme activity assay in microdevice with human plasma, protease probes
Protocol: (§3) • 1. Suc-AAPA-sHMRG as a fluorescent probe for detecting protease activity was diluted with an assay buffer to 200 μM. The composition of the assay buffer is 100 mM HEPES-NaOH (pH 7.4), 1 mM MgCl2, 1 mM CaCl2, 1 mM DTT, 3 mM Triton X-100. • 2. Next, a human plasma sample was diluted by 250 times with the above assay buffer, and mixed in an equal amount with the diluted solution of the probe. At this time, the final concentrations of both are 100 μM for Suc-AAPA-sHMRG and 500 fold dilution for the human plasma sample. • 3. The mixed solution of both was then added to a microdevice, followed by the addition of sealing oil to enclose the solution in each well. • 4. The microdevice in which the solution was enclosed was incubated at 37° C. for 4 hours, and then the fluorescence intensity of each well was measured with a fluorescence microscope.
• 1. Ac-LRGG-sSiR as a fluorescent probe for detecting protease activity was diluted with an assay buffer to 100 μM. The composition of the assay buffer is 100 mM HEPES-NaOH (pH 7.4), 1 mM MgCl2, 1 mM CaCl2, 1 mM DTT, 3 mM Triton X-100. • 2. Next, a human plasma sample was diluted by 10,000 times with the above assay buffer, and mixed in an equal amount with the diluted solution of the probe. At this time, the final concentrations of both are 50 μM for Ac-LRGG-sSiR and 20,000 fold dilution for the human plasma sample. • 3. The mixed solution of both was then added to a microdevice, followed by the addition of sealing oil to enclose the solution in each well. • 4. The microdevice in which the solution was enclosed was incubated at 37° C. for 2 hours, and then the fluorescence intensity of each well was measured with a fluorescence microscope.
• 1. EP-sSiR as a fluorescent probe for detecting protease activity was diluted with an assay buffer to 60 μM. […] The microdevice in which the solution was enclosed was incubated at 25° C. for 2 hours, and then the fluorescence intensity of each well was measured with a fluorescence microscope.

[3] = test system: peptidase activity in human plasma sample; experiment: Enzyme activity assay in microdevice with human plasma, peptidase probes; conditions: 50 μM probe
Protocol: as §1, with “1. GP-sHMRG” for “1. Leu-sHMRG”, “detecting peptidase” for “detecting aminopeptidase”, “MgCl2, 1 mM CaCl2,” for “MgCl2,”, “for GP-sHMRG” for “for Leu-sHMRG”, “at 25°” for “at 37°”, “for 2” for “for 4”
as §3, with “1. Ac-Ala-sHMRG” for “1. Suc-AAPA-sHMRG”, “detecting peptidase” for “detecting protease”, “to 100” for “to 200”, “are 50” for “are 100”, “for Ac-Ala-sHMRG” for “for Suc-AAPA-sHMRG”
• 1. Ac-GP-sSiR as a fluorescent probe for detecting peptidase activity was diluted with an assay buffer to 100 μM. The composition of the assay buffer is 100 mM HEPES-NaOH (pH 7.4), 1 mM MgCl2, 1 mM CaCl2, 1 mM DTT, 3 mM Triton X-100. • 2. […] The microdevice in which the solution was enclosed was incubated at 37° C. for 2 hours, and then the fluorescence intensity of each well was measured with a fluorescence microscope.

[4] = human plasma 1,000 fold dilution, 37° C. for 4 hours
[5] = human plasma 20,000 fold dilution, 37° C. for 2 hours
[6] = human plasma 1,000 fold dilution, 37° C. for 2 hours

With `Cc1ccc(S(=O)(=O)O)cc1C1=C2C=CC(=N)C=C2[Si](C)(C)c2cc(NC(=O)[C@@H](N)Cc3c[nH]c4ccccc34)ccc21` [Trp-sSiR] as the compound, how does the “fluorescence intensity of wells in which the reacting enzyme was enclosed” value (shortened to “fluorescence intensity of wells”) [1, 4] read?
The value was “increase in fluorescence intensity was observed”.

Which “fluorescence intensity of wells” value [1, 5] does the source give for `NCCCC[C@H](N)C(=O)Nc1ccc2c(c1)Oc1cc(N)ccc1C21OCc2cc(S(=O)(=O)O)ccc21` (stereo partly shown) [Lys-sHMRG] here?
The value was “increase in fluorescence intensity was observed”.

How did the “fluorescence intensity of wells” value ([1]; human plasma 5,000 fold dilution, 37° C. for 4 hours) turn out when `CC(C)C[C@H](N)C(=O)Nc1ccc2c(c1)Oc1cc(N)ccc1C21OCc2cc(S(=O)(=O)O)ccc21` (stereo partly shown) [Leu-sHMRG] was run?
Its value is “increase in fluorescence intensity was observed”.

How did the “fluorescence intensity of wells” value ([2]; 30 μM probe, human plasma 5,000 fold dilution, 25° C. for 2 hours) turn out when `Cc1ccc(S(=O)(=O)O)cc1C1=C2C=CC(=N)C=C2[Si](C)(C)c2cc(NC(=O)C3CCCN3C(=O)[C@@H](N)CCC(=O)O)ccc21` (stereo partly shown) [EP-sSiR] was run?
The value was “increase in fluorescence intensity was observed”.

Which “fluorescence intensity of wells” value ([2]; 100 μM probe, human plasma 500 fold dilution, 37° C. for 4 hours) does the source give for `C[C@H](NC(=O)CCC(=O)O)C(=O)N[C@@H](C)C(=O)N1CCC[C@@H]1C(=O)N[C@@H](C)C(=O)Nc1ccc2c(c1)Oc1cc(N)ccc1C21OCc2cc(S(=O)(=O)O)ccc21` (stereo partly shown) [Suc-AAPA-sHMRG] (Suc-AA[dP]A-X1) here?
Its value is “increase in fluorescence intensity was observed”.

With `C[C@H](N)C(=O)Nc1ccc2c(c1)Oc1cc(N)ccc1C21OCc2cc(S(=O)(=O)O)ccc21` (stereo partly shown) [Ala-sHMRG] as the compound, how does the “fluorescence intensity of wells” value [1, 4] read?
The value was “increase in fluorescence intensity was observed”.

`CC(=O)N[C@@H](CC(C)C)C(=O)N[C@H](CCCNC(=N)N)C(=O)NCC(=O)NCC(=O)Nc1ccc2c(c1)[Si](C)(C)C1=CC(=N)C=CC1=C2c1cc(S(=O)(=O)O)ccc1C` [Ac-LRGG-sSiR] (Ac-L[dR]GG-X2) was tested. Which “fluorescence intensity of wells” value ([2]; 50 μM probe, human plasma 20,000 fold dilution, 37° C. for 2 hours) did it give?
The value was “increase in fluorescence intensity was observed”.

`CC(=O)N[C@@H](C)C(=O)Nc1ccc2c(c1)Oc1cc(N)ccc1C21OCc2cc(S(=O)(=O)O)ccc21` (stereo partly shown) [Ac-Ala-sHMRG] was tested. Which “fluorescence intensity of wells” value ([3]; human plasma 500 fold dilution, 37° C. for 4 hours) did it give?
Its value is “increase in fluorescence intensity was observed”.

Which “fluorescence intensity of wells” value [3, 5] does the source give for `CC(=O)NCC(=O)N1CCCC1C(=O)Nc1ccc2c(c1)[Si](C)(C)C1=CC(=N)C=CC1=C2c1cc(S(=O)(=O)O)ccc1C` (stereo not shown) [Ac-GP-sSiR] here?
Its value is “increase in fluorescence intensity was observed”.

`CSCC[C@H](N)C(=O)Nc1ccc2c(c1)Oc1cc(N)ccc1C21OCc2cc(S(=O)(=O)O)ccc21` (stereo partly shown) [Met-sHMRG] was tested. Which “fluorescence intensity of wells” value [1, 6] did it give?
The value was “increase in fluorescence intensity was observed”.

For `Cc1ccc(S(=O)(=O)O)cc1C1=C2C=CC(=N)C=C2[Si](C)(C)c2cc(NC(=O)[C@@H](N)CCCNC(=N)N)ccc21` [Arg-sSiR], which “fluorescence intensity of wells” value [1, 4] is on record?
The value was “increase in fluorescence intensity was observed”.

For `Nc1ccc2c(c1)Oc1cc(NC(=O)CC[C@@H](N)C(=O)O)ccc1C21OCc2cc(S(=O)(=O)O)ccc21` (stereo partly shown) [gGlu-sHMRG], which “fluorescence intensity of wells” value [1, 6] is on record?
The value was “increase in fluorescence intensity was observed”.

For `Nc1ccc2c(c1)Oc1cc(NC(=O)[C@@H](N)Cc3ccc(O)cc3)ccc1C21OCc2cc(S(=O)(=O)O)ccc21` (stereo partly shown) [Tyr-sHMRG], which “fluorescence intensity of wells” value [1, 4] is on record?
The value was “increase in fluorescence intensity was observed”.
